Data taken from article PMC7482845, “G10 is a direct activator of human STING” (PLoS ONE, 2020).
In brackets after ≈: the same amount, converted by molar mass.

Key:
[1] = test system: parent HEK293T cells; test: Luciferase assay in parent (control) HEK293T cells without STING; format: cell-based, human; conditions: HEK293T cells that do not express STING (S1 Fig)
Protocol: (§1) […] clonally selected HEK293T-hSTING-Luciferase cells or control HEK293T-Luciferase cells were seeded in 384-well plates in growth medium and stimulated with known STING agonists or novel compounds. Supernatants were removed after 20 hours of treatment and secretory reporter gene activity was measured using the Quanti-Luc detection system (Invivogen) on a Spectramax i3X luminometer.

[2] = test system: immortalized human fibroblasts; design: method as in PMID 26646986; conditions: cited from earlier work
[3] = biological target: T1, mSTING (CT26 cells overexpressing mSTING) (Mus musculus, UniProt Q3TBT3); test: Western blot of pSTING and pIRF3 in CT26 cells overexpressing mSTING; format: cell-based; conditions: immunoblot, 2 hours
T1 construct: expressed in transfected cells; host or cells: CT26
Protocol: (§2) 5 x 10^5 cells were seeded in 24-well plates in 500 μl growth medium and stimulated with novel compounds at 10μM. After 2 hours of treatment cells were harvested by centrifugation and cell pellets were lysed in RIPA buffer (20mM Tris-Cl, 150mM NaCl, 0.5mM EDTA, 1% NP40, 0.05% SDS) containing 1x phosphatase inhibitor cocktail 3 (Sigma) and 1x protease inhibitor (Roche) to extract the soluble fraction of protein. 10 μg of extracted protein was electrophoresed in 10% SDS-PAGE gels and transferred onto Immobilon-P membranes (Millipore). […] Anti-rabbit HRP label secondary antibody (Abcam) and Clarity Max™ western ECL substrate (Biorad—cat# 1705062) were used for visualization of bands using a BioRad XRS plus imager.

[4] = biological target: T2, HAQ STING (THP-1 cells) (Homo sapiens, UniProt Q86WV6, G230A/R293Q/R71H); test: Western blot of pSTING and pIRF3 in THP-1 cells; format: cell-based; conditions: immunoblot, 2 hours
T2 construct: THP1 cells constitutively express the HAQ variant of human STING; host or cells: THP-1
Protocol: 5 x 10^5 cells were seeded in 24-well plates in 500 μl growth medium and stimulated with novel compounds at 10μM. After 2 hours of treatment cells were harvested by centrifugation and cell pellets were lysed in RIPA buffer (20mM Tris-Cl, 150mM NaCl, 0.5mM EDTA, 1% NP40, 0.05% SDS) containing 1x phosphatase inhibitor cocktail 3 (Sigma) and 1x protease inhibitor (Roche) to extract the soluble fraction of protein. 10 μg of extracted protein was electrophoresed in 10% SDS-PAGE gels and transferred onto Immobilon-P membranes (Millipore).

[5] = biological target: TBK1 (Homo sapiens, UniProt Q9UHD2); test: TBK1 kinase assay in the presence of G10; format: biochemical; conditions: S1 Table
[6] = Solubility under assay conditions; format: physicochemical; conditions: under our assay conditions; read-out: maximum solubility
[7] = biological target: T3, R232 variant of human STING (THP-1-Dual KI-hSTING-R232 cells) (Homo sapiens, UniProt Q86WV6, H232R); test: Western blot of pSTING and pIRF3 in THP1-R232 knock in cells; format: cell-based; conditions: immunoblot, 2 hours, R232 STING in HAQ knockout background
T3 construct: host or cells: THP-1-Dual KI-hSTING-R232
Protocol: HEK293T cells were procured from ATCC. THP-1 and THP-1-Dual KI-hSTING-R232 cells which contained the R232 version of STING was knocked in to THP1 cells in which the HAQ version was ablated, were procured from Invivogen, CA, USA.
as §2

[8] = biological target: T2, HAQ STING (THP-1 cells); test: THP1 cellular assay (EC50); format: cell-based; conditions: THP-1 cells (HAQ STING)
[9] = biological target: HAQ variant of human STING (Homo sapiens, UniProt Q86WV6, G230A/R293Q/R71H); test: Luciferase (ISRE.ISG reporter) assay in HEK293T cells stably expressing HAQ hSTING; format: cell-based; conditions: ISRE.ISG54 luciferase reporter, 18 hours, compared with R232 and H232
From the text: (§3) • a) Stable STING expressing cells. Stable HEK293T STING-expressing cell lines were generated using plasmids purchased from Invivogen, CA, USA, that contain STING cDNA cloned into the pUNO-1 vector under the hEF1-HTLV promoter as well as the Blasticidin selection cassette. The human STING plasmids corresponding to the R232, H232 and HAQ variants were directly procured from Invivogen while the AQ and Q variants were created by mismatch PCR using cDNA from HAQ.STING and R232.STING variants respectively. These vectors were individually transfected into HEK293T cells using Lipofectamine (Invitrogen) and transfected cells were expanded under Blasticidin selection. These cells were further subjected to clonal selection using the limiting dilution method to obtain clonally pure populations of HEK293T cells expressing each of the five human STING variants. Clones with minimal ligand independent activation of STING were chosen for cellular experiments. • b) N-His R232.hSTING HEK293T cells. HEK293T cells stably expressing N-His R232.hSTING were generated by the following described method. N-His R232.hSTING.pcDNA Myc B plasmid was transfected into HEK293T cells using Lipofectamine reagent (Invitrogen) and the transfected cells were selected under Hygromycin. […]

[10] = test system: human PBMCs and umbilical endothelial cells; design: method as in PMID 26646986; conditions: cited from earlier work
[11] = biological target: T4, Q variant of human STING (Homo sapiens, UniProt Q86WV6, R293Q); test: Luciferase (ISRE.ISG reporter) assay in HEK293T cells stably expressing Q hSTING; format: cell-based
T4 construct: expressed in transfected cells
From the text: as §3, with “cells.” for “cells. HEK293T cells stably expressing N-His R232.hSTING were generated by the following described method. N-His R232.hSTING.pcDNA Myc B plasmid was transfected into HEK293T cells using Lipofectamine reagent (Invitrogen) and the transfected cells were selected under Hygromycin.”
as §1

T2 sequence (Q86WV6 whole entry R71H/G230A/R293Q): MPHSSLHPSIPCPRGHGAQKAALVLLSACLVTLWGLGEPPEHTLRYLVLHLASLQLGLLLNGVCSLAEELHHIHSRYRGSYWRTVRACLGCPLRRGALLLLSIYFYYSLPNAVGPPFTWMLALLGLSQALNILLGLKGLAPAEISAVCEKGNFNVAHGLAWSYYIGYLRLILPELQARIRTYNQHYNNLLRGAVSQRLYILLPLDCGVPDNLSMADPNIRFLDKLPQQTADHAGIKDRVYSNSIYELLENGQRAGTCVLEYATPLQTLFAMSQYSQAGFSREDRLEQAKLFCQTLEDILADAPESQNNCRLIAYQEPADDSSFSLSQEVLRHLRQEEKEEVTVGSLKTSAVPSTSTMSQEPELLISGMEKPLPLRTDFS
Chain of HAQ variant of human STING (Q86WV6 whole entry R71H/G230A/R293Q): as above
T1 sequence (Q3TBT3 whole entry): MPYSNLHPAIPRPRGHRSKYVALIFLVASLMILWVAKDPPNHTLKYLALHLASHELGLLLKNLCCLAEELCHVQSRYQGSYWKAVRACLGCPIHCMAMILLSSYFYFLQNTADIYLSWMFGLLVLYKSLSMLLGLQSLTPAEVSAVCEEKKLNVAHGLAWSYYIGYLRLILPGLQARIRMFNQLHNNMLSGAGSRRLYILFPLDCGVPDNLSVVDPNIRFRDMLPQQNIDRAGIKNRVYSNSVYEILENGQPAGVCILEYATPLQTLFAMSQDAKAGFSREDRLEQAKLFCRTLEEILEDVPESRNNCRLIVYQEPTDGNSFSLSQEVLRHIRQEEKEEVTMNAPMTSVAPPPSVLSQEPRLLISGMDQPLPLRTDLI
T4 sequence (Q86WV6 whole entry R293Q): as the sequence (Q86WV6 whole entry R71H/G230A/R293Q) above, with H71R, A230G counted along it
T3 sequence (Q86WV6 whole entry H232R): as the sequence (Q86WV6 whole entry R71H/G230A/R293Q) above, with H71R, A230G, H232R, Q293R counted along it
Chain of TBK1 (Q9UHD2 whole entry): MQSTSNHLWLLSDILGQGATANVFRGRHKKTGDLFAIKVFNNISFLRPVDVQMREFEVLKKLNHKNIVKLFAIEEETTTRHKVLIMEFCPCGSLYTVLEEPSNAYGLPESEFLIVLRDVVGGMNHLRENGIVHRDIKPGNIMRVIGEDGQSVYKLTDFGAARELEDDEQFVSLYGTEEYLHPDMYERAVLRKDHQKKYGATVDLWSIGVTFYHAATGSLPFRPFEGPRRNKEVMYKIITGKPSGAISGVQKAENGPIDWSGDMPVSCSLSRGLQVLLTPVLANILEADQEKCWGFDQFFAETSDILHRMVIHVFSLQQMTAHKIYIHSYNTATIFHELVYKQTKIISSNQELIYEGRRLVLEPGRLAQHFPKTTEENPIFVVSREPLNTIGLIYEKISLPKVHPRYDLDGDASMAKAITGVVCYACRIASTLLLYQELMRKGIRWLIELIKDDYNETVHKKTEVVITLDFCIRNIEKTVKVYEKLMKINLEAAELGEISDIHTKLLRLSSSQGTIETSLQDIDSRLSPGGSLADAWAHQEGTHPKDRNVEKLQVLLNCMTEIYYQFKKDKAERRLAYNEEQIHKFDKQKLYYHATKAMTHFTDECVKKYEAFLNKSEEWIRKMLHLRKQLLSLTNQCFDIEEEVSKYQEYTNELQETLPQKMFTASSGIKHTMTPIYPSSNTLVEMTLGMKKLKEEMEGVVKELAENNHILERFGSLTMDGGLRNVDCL

## O=C(NCc1ccco1)c1ccc2c(c1)N(Cc1c(F)cccc1Cl)C(=O)CS2 [Compound G10, 4-(2-Chloro-6-fluorobenzyl)-N-(furan-2-ylmethyl)-3-oxo-3,4-dihydro-2H-benzo[b][1,4]thiazine-6-carboxamide]
[1]
  response of parent HEK293T cells (reporter gene expression): unresponsive
[2]; STING knockout fibroblasts
  activity in STING knockout fibroblasts: inactive
[2]
  activation of the NFκB pathway in immortalized human fibroblasts: did not activate
[3]
  phosphorylation of mSTING or mIRF3, CT26 cells overexpressing mSTING: did not lead to phosphorylation
[4]
  phosphorylation of STING and IRF3 (pSTING, pIRF3) in THP1 cells: unable to detect either pSTING or pIRF3
[5]
  effect on TBK-1 enzyme: does not inhibit or activate
[6]
  solubility: 20 µM (≈ 8.62 µg/mL)
[7]
  phosphorylation of STING and IRF3 in THP1-R232 cells: led to phosphorylation of STING and IRF3
[8]
  THP-1 EC50: Nil @ 30uM
[9]
  activity against the HAQ variant: less active
[10]
  induction of pro-inflammatory genes incl. NFκB pathway: induced several pro-inflammatory genes
[11]
  activity against the Q variant: barely active
